Molecular target: T1, ALK (baculovirus expressed human ALK kinase domain F1098-K1410) (Homo sapiens, UniProt Q9UM73)
T1 construct: human ALK kinase domain F1098-K1410; made in house
Assay: biochemical
Conditions: 1 μM ATP, 4 μM poly-AEKY, 12 nM ALK, 2 hours at ambient temperature; read-out: ALK IC50
How it was run: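 Inhibitors were tested at 10 concentrations, and IC50 was derived from a sigmoidal fit (Min, Max, Hill slope). Kinase activity was measured as percent ATP left after a 2 h reaction at room temperature, detected by luciferase-luciferin chemiluminescence. The ATP level was set close to KM for the ALK kinase domain F1098-K1410.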

T1 sequence (Q9UM73 1098-1410): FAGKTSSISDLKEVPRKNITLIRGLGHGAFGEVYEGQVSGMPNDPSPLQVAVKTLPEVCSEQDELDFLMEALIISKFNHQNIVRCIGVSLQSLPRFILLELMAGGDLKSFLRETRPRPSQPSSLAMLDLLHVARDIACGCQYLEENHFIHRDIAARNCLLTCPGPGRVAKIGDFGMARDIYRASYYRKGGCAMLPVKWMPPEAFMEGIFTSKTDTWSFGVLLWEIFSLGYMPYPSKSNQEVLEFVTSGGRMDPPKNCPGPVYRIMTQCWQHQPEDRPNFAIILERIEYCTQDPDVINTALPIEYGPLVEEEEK

| SMILES | IC50 [nM] |
| --- | --- |
| C[C@@H]1[C@H]2C[C@@H](C[C@H]1NC(=O)c1csc(CNC(=O)COc3ccc(OC(F)(F)F)cc3)n1)C2(C)C [Entry 88, 2-({[({4-[(trifluoromethyl)oxy]phenyl}oxy)acetyl]amino}methyl)-N-[(1R,2R,3R,5S)-2,6,6-trimethylbicyclo[3.1.1]hept-3-yl]-1,3-thiazole-4-carboxamide] | 50 to 500 |
| O=C(COc1ccc(OC(F)(F)F)cc1)NCc1nc(C(=O)NC2CCCCCCC2)cs1 [Entry 76, N-cyclooctyl-2-({[({4-[(trifluoromethyl)oxy]phenyl}oxy)acetyl]amino}methyl)-1,3-thiazole-4-carboxamide] | 50 to 500 |
| COc1ccc(CNC(=O)c2csc(CNC(=O)COc3ccc(OC(F)(F)F)cc3)n2)cc1OC [Entry 187, N-{[3,4-bis(methyloxy)phenyl]methyl}-2-({[({4-[(trifluoromethyl)oxy]phenyl}oxy)acetyl]amino}methyl)-1,3-thiazole-4-carboxamide] | 50 to 500 |
| O=C(COc1ccc(OC(F)(F)F)cc1)NCc1nc(C(=O)NCc2c(Cl)cccc2Oc2ccccc2)cs1 [Entry 163, N-{[2-chloro-6-(phenyloxy)phenyl]methyl}-2-({[({4-[(trifluoromethyl)oxy]phenyl}oxy)acetyl]amino}methyl)-1,3-thiazole-4-carboxamide] | 50 to 500 |
| O=C(COc1ccc(OC(F)(F)F)cc1)NCc1nc(C(=O)NCCCN2CCOCC2)cs1 [Entry 267, N-(3-morpholin-4-ylpropyl)-2-({[({4-[(trifluoromethyl)oxy]phenyl}oxy)acetyl]amino}methyl)-1,3-thiazole-4-carboxamide] | 500 to 2000 |
| NC(=O)C(NC(=O)c1csc(CNC(=O)COc2ccc(OC(F)(F)F)cc2)n1)c1ccccc1 (centres unmarked) [Entry 54, N-(2-amino-2-oxo-1-phenylethyl)-2-({[({4-[(trifluoromethyl)oxy]phenyl}oxy)acetyl]amino}methyl)-1,3-thiazole-4-carboxamide] | 50 to 500 |
| COc1ccc(OCCNC(=O)c2csc(CNC(=O)COc3ccc(OC(F)(F)F)cc3)n2)cc1 [Entry 81, N-(2-{[4-(methyloxy)phenyl]oxy}ethyl)-2-({[({4-[(trifluoromethyl)oxy]phenyl}oxy)acetyl]amino}methyl)-1,3-thiazole-4-carboxamide] | 50 to 500 |
| O=C(NCc1nc(C(=O)NCCc2cccc(Cl)c2)cs1)OCc1ccc(OC(F)(F)F)cc1 [Entry 298, {4-[(trifluoromethyl)oxy]phenyl}methyl {[4-({[2-(3-chlorophenyl)ethyl]amino}carbonyl)-1,3-thiazol-2-yl]methyl}carbamate] | 500 to 2000 |
| NCc1nc(C(=O)NCCc2cccc(Cl)c2)co1 [Entry 307, 2-(aminomethyl)-N-[2-(3-chlorophenyl)ethyl]-1,3-oxazole-4-carboxamide] | > 2000 |
| C[C@@H](CNC(=O)c1coc(CNC(=O)COc2ccc(OC(F)(F)F)cc2)n1)c1ccccc1 [Entry 128, N-[(2R)-2-phenylpropyl]-2-({[({4-[(trifluoromethyl)oxy]phenyl}oxy)acetyl]amino}methyl)-1,3-oxazole-4-carboxamide] | 50 to 500 |
| O=C(COc1ccc(OC(F)(F)F)cc1)NCc1nc(C(=O)NCCc2ccc(Cl)cc2)cs1 [Entry 83, N-[2-(4-chlorophenyl)ethyl]-2-({[({4-[(trifluoromethyl)oxy]phenyl}oxy)acetyl]amino}methyl)-1,3-thiazole-4-carboxamide] | 50 to 500 |
| COc1ccc(CNC(=O)c2csc(CNC(=O)COc3ccc(OC(F)(F)F)cc3)n2)cc1 [Entry 178, N-{[4-(methyloxy)phenyl]methyl}-2-({[({4-[(trifluoromethyl)oxy]phenyl}oxy)acetyl]amino}methyl)-1,3-thiazole-4-carboxamide] | 50 to 500 |
| O=C(Cc1ccc2ccccc2c1)NCc1nc(C(=O)NCCc2ccccc2F)cs1 [Entry 169, N-[2-(2-fluorophenyl)ethyl]-2-{[(naphthalen-2-ylacetyl)amino]methyl}-1,3-thiazole-4-carboxamide] | 50 to 500 |
| O=C(COc1ccc(OC(F)(F)F)cc1)NCc1nc(C(=O)NCc2ccccc2)co1 [Entry 297, N-(phenylmethyl)-2-({[({4-[(trifluoromethyl)oxy]phenyl}oxy)acetyl]amino}methyl)-1,3-oxazole-4-carboxamide] | 500 to 2000 |
| O=C(COc1ccc(OC(F)(F)F)cc1)NCc1nc(C(=O)NCCc2ccc(Br)cc2)co1 [Entry 231, N-[2-(4-bromophenyl)ethyl]-2-({[({4-[(trifluoromethyl)oxy]phenyl}oxy)acetyl]amino}methyl)-1,3-oxazole-4-carboxamide] | 500 to 2000 |
| O=C(COc1ccc(OC(F)(F)F)cc1)NCc1nc(C(=O)NCC2CCCO2)cs1 (centres unmarked) [Entry 265, N-(tetrahydrofuran-2-ylmethyl)-2-({[({4-[(trifluoromethyl)oxy]phenyl}oxy)acetyl]amino}methyl)-1,3-thiazole-4-carboxamide] | 500 to 2000 |

| SMILES | IC50 [nM] |
| --- | --- |
| CCOc1ccc(CCNC(=O)c2csc(CNC(=O)COc3ccc(OC(F)(F)F)cc3)n2)cc1OC [Entry 43, N-{2-[4-(ethyloxy)-3-(methyloxy)phenyl]ethyl}-2-({[({4-[(trifluoromethyl)oxy]phenyl}oxy)acetyl]amino}methyl)-1,3-thiazole-4-carboxamide] | 50 to 500 |
| O=C(COc1ccc(OC(F)(F)F)cc1)NCc1nc(C(=O)NCc2c(F)cccc2F)cs1 [Entry 115, N-[(2,6-difluorophenyl)methyl]-2-({[({4-[(trifluoromethyl)oxy]phenyl}oxy)acetyl]amino}methyl)-1,3-thiazole-4-carboxamide] | 50 to 500 |
| CCCCOCCCNC(=O)c1csc(CNC(=O)COc2ccc(OC(F)(F)F)cc2)n1 [Entry 37, N-[3-(butyloxy)propyl]-2-({[({4-[(trifluoromethyl)oxy]phenyl}oxy)acetyl]amino}methyl)-1,3-thiazole-4-carboxamide] | 50 to 500 |
| C[C@H](NC(=O)c1csc(CNC(=O)COc2ccc(OC(F)(F)F)cc2)n1)C(C)(C)C [Entry 102, 2-({[({4-[(trifluoromethyl)oxy]phenyl}oxy)acetyl]amino}methyl)-N-[(1S)-1,2,2-trimethylpropyl]-1,3-thiazole-4-carboxamide] | 50 to 500 |
| CCc1ccc(NC(=O)NCc2nc(C(=O)NCc3ccccc3OC)cs2)cc1 [Entry 110, 2-[({[(4-ethylphenyl)amino]carbonyl}amino)methyl]-N-{[2-(methyloxy)phenyl]methyl}-1,3-thiazole-4-carboxamide] | 50 to 500 |
| CC(CCc1ccccc1)NC(=O)c1csc(CNC(=O)COc2ccc(OC(F)(F)F)cc2)n1 (centres unmarked) [Entry 152, N-(1-methyl-3-phenylpropyl)-2-({[({4-[(trifluoromethyl)oxy]phenyl}oxy)acetyl]amino}methyl)-1,3-thiazole-4-carboxamide] | 50 to 500 |
| O=C(COc1ccc(OC(F)(F)F)cc1)NCc1nc(C(=O)NCCc2ccncc2)cs1 [Entry 48, N-(2-pyridin-4-ylethyl)-2-({[({4-[(trifluoromethyl)oxy]phenyl}oxy)acetyl]amino}methyl)-1,3-thiazole-4-carboxamide] | 50 to 500 |
| CC(CNC(=O)c1coc(CNC(=O)COc2ccc(OC(F)(F)F)cc2)n1)c1ccccc1 (centres unmarked) [Entry 259, N-(2-phenylpropyl)-2-({[({4-[(trifluoromethyl)oxy]phenyl}oxy)acetyl]amino}methyl)-1,3-oxazole-4-carboxamide] | 500 to 2000 |
| CCOc1ccccc1CNC(=O)c1coc(CNC(=O)COc2ccc(OC(F)(F)F)cc2)n1 [Entry 235, N-{[2-(ethyloxy)phenyl]methyl}-2-({[({4-[(trifluoromethyl)oxy]phenyl}oxy)acetyl]amino}methyl)-1,3-oxazole-4-carboxamide] | 500 to 2000 |
| Cc1cccc(CNC(=O)c2csc(CNC(=O)COc3ccc(OC(F)(F)F)cc3)n2)c1C [Entry 46, N-[(2,3-dimethylphenyl)methyl]-2-({[({4-[(trifluoromethyl)oxy]phenyl}oxy)acetyl]amino}methyl)-1,3-thiazole-4-carboxamide] | 50 to 500 |
| O=C(COc1ccc(OC(F)(F)F)cc1)NCc1nc(C(=O)NCc2ccccn2)cs1 [Entry 190, N-(pyridin-2-ylmethyl)-2-({[({4-[(trifluoromethyl)oxy]phenyl}oxy)acetyl]amino}methyl)-1,3-thiazole-4-carboxamide] | 50 to 500 |
| CC(C)(C)CC(C)(C)NC(=O)c1csc(CNC(=O)COc2ccc(OC(F)(F)F)cc2)n1 [Entry 196, N-(1,1,3,3-tetramethylbutyl)-2-({[({4-[(trifluoromethyl)oxy]phenyl}oxy)acetyl]amino}methyl)-1,3-thiazole-4-carboxamide] | 50 to 500 |
| COc1ccccc1CNC(=O)c1csc(CNC(=O)COc2ccc(Cl)cc2)n1 [Entry 263, 2-[({[(4-chlorophenyl)oxy]acetyl}amino)methyl]-N-{[2-(methyloxy)phenyl]methyl}-1,3-thiazole-4-carboxamide] | 500 to 2000 |
| O=C(COc1ccc(OC(F)(F)F)cc1)NCc1nc(C(=O)NCc2ccc(F)cc2F)cs1 [Entry 258, N-[(2,4-difluorophenyl)methyl]-2-({[({4-[(trifluoromethyl)oxy]phenyl}oxy)acetyl]amino}methyl)-1,3-thiazole-4-carboxamide] | 500 to 2000 |
| O=C(NCCc1cccc(Cl)c1)c1csc(CNC(=O)c2cccnc2Oc2ccc(F)cc2)n1 [Entry 141, N-{[4-({[2-(3-chlorophenyl)ethyl]amino}carbonyl)-1,3-thiazol-2-yl]methyl}-2-[(4-fluorophenyl)oxy]pyridine-3-carboxamide] | 50 to 500 |
| O=C(COc1ccc(OC(F)(F)F)cc1)NCc1nc(C(=O)NCCc2cccc(Cl)c2)c[nH]1 [Entry 306, N-[2-(3-chlorophenyl)ethyl]-2-({[({4-[(trifluoromethyl)oxy]phenyl}oxy)acetyl]amino}methyl)-1H-imidazole-4-carboxamide] | > 2000 |
